In patent US20090018134A1, “Compounds - 945” (AstraZeneca AB, priority 2007, published 2009):

Each molecule was assayed against T1, mTOR (Homo sapiens, UniProt P42345) (assay: In Vitro mTOR Kinase Assay (Echo), Test (a)(ii)). Conditions: table of enzyme assay Test (a)(ii); read-out: Test (a)(ii) IC50.
T1 construct: FLAG; made in house
T1 sequence (P42345 1362-2549): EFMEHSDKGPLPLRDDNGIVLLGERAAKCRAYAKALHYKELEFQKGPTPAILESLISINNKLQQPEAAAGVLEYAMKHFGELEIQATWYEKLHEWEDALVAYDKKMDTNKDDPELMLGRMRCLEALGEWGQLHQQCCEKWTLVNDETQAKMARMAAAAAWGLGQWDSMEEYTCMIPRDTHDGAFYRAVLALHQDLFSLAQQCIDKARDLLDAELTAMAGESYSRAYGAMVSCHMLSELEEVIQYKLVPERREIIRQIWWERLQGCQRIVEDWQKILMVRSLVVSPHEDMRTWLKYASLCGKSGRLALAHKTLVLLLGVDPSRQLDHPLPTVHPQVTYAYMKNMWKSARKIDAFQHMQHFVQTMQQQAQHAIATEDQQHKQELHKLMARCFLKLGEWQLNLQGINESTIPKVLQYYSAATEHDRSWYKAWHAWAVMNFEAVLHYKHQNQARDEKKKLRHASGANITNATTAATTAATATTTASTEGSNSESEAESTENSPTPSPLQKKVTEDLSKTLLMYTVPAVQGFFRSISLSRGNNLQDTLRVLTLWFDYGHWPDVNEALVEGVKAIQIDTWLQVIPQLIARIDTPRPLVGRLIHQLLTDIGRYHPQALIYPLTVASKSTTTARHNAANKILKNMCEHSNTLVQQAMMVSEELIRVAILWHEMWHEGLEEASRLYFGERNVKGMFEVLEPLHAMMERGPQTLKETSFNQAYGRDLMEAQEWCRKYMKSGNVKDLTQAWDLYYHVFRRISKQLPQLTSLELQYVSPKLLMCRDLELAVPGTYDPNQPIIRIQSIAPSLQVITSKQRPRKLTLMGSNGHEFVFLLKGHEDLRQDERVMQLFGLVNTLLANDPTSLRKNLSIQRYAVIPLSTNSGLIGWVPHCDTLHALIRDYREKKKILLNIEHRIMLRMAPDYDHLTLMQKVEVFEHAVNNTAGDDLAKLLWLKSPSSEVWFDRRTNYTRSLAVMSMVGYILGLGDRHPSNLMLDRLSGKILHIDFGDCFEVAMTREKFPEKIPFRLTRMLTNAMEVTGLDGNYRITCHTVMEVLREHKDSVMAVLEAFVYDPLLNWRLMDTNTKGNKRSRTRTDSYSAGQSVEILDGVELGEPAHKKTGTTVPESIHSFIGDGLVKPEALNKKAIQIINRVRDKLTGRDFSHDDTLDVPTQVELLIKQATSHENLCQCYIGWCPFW
Assay type: biochemical
Outline: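 Enzyme: HEK293-expressed, FLAG-purified mTOR C-terminal fragment (aa 1362-2549). Rxn 2 h RT with biotinylated peptide, stopped with EDTA 50 mM/BSA/Tris pH 7.4. Detection: T389 phospho-antibody AlphaScreen, 680 nm excitation. IC50.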
For C[C@H]1COCCN1c1cc(C2(S(=O)(=O)c3ccc(F)c(Cl)c3)CC2)nc(-c2ccc(NC(=O)Nc3cnn(C)c3)cc2)n1 [Example 95g, 1-[4-[4-[1-(3-chloro-4-fluorophenyl)sulfonyl-cyclopropyl]-6-[(3S)-3-methylmorpholin-4-yl]pyrimidin-2-yl]phenyl]-3-(1-methylpyrazol-4-yl)urea], the IC50 was 16.4 nM.
CNC(=O)Nc1ccc(-c2nc(N3CCOC[C@@H]3C)cc(C3(S(=O)(=O)c4ccc(NC)c(Cl)c4)CC3)n2)cc1 [Example 95h, 1-[4-[4-[1-(3-chloro-4-methylamino-phenyl)sulfonylcyclo-propyl]-6-[(3S)-3-methylmorpho-lin-4-yl]pyrimidin-2-yl]phenyl]-3-methylurea] gave an IC50 of 13 nM.
With C[C@H]1COCCN1c1cc(C2(S(=O)(=O)c3ccc(NCCO)c(Cl)c3)CC2)nc(-c2ccc(NC(=O)NCCO)cc2)n1 [Example 95i, 1-[4-[4-[1-[3-chloro-4-(2-hydroxyethylamino)phenyl]sulfonylcyclopropyl]-6-[(3S)-3-methylmorpho-lin-4-yl]pyrimidin-2-yl]phenyl]-3-(2-hydroxyethyl)urea] the IC50 was 4.79 nM.
Work on C[C@H]1COCCN1c1cc(C2(S(=O)(=O)c3ccc(NCCF)c(Cl)c3)CC2)nc(-c2ccc(NC(=O)NCCF)cc2)n1 [Example 95j, 1-[4-[4-[1-[3-chloro-4-(2-fluoroethyl-amino)phenyl]sulfonyl-cyclopropyl]-6-[(3S)-3-methylmorpho-lin-4-yl]pyrimidin-2-yl]phenyl]-3-(2-fluoroethyl)urea] yielded an IC50 of 13.1 nM.
Work on CCNC(=O)Nc1ccc(-c2nc(N3CCOC[C@@H]3C)cc(C3(S(=O)(=O)c4ccc(NCC)c(Cl)c4)CC3)n2)cc1 [Example 95k, 1-[4-[4-[1-(3-chloro-4-ethylamino-phenyl)sulfonylcyclopro-pyl]-6-[(3S)-3-methylmorpho-lin-4-yl]pyrimidin-2-yl]phenyl]-3-ethylurea] yielded an IC50 of 27.2 nM.
Molecule CNC(=O)Nc1ccc(-c2nc(N3CCOC[C@@H]3C)cc(C3(S(=O)(=O)c4ccc(C)cc4)CC3)n2)cc1 [Example 95l, 3-methyl-1-[4-[4-[(3S)-3-methylmorpholin-4-yl]-6-[1-(4-methylphenyl)sulfonylcyclopropyl]pyrimidin-2-yl]phenyl]urea] has an IC50 of 1.09 nM.
Molecule Cc1ccc(S(=O)(=O)C2(c3cc(N4CCOC[C@@H]4C)nc(-c4ccc(NC(=O)NC5CC5)cc4)n3)CC2)cc1 [Example 95m, 3-cyclopropyl-1-[4-[4-[(3S)-3-methylmorpholin-4-yl]-6-[1-(4-methylphenyl)sulfonylcyclopropyl]pyrimidin-2-yl]phenyl]urea] has an IC50 of 2.02 nM.
Cc1ccc(S(=O)(=O)C2(c3cc(N4CCOC[C@@H]4C)nc(-c4ccc(NC(=O)NCCO)cc4)n3)CC2)cc1 [Example 95n, 3-(2-hydroxyethyl)-1-[4-[4-[(3S)-3-methylmorpholin-4-yl]-6-[1-(4-methylphenyl)sulfonylcyclopropyl]pyrimidin-2-yl]phenyl]urea] was tested, and the IC50 was 0.668 nM.
Molecule Cc1ccc(S(=O)(=O)C2(c3cc(N4CCOC[C@@H]4C)nc(-c4ccc(NC(=O)NCCF)cc4)n3)CC2)cc1 [Example 95o, 3-(2-fluoro-ethyl)-1-[4-[4-[(3S)-3-methylmorpholin-4-yl]-6-[1-(4-methylphenyl)sulfonylcyclopropyl]pyrimidin-2-yl]phenyl]urea] has an IC50 of 4.73 nM.
Cc1ccc(S(=O)(=O)C2(c3cc(N4CCOC[C@@H]4C)nc(-c4ccc(NC(=O)NCC(F)F)cc4)n3)CC2)cc1 [Example 95p, 3-(2,2-difluoroethyl)-1-[4-[4-[(3S)-3-methylmorpholin-4-yl]-6-[1-(4-methylphenyl)sulfonylcyclopropyl]pyrimidin-2-yl]phenyl]urea] showed an IC50 of 5.43 nM.
For CCNC(=O)Nc1ccc(-c2nc(N3CCOC[C@@H]3C)cc(C3(S(=O)(=O)c4ccc(C)cc4)CC3)n2)cc1 [Example 95q, 1-ethyl-3-[4-[4-[(3S)-3-methylmorpholin-4-yl]-6-[1-(4-methylphenyl)sulfonylcyclopropyl]pyrimidin-2-yl]phenyl]urea], the IC50 was 1.68 nM.
Cc1ccc(S(=O)(=O)C2(c3cc(N4CCOC[C@@H]4C)nc(-c4ccc(NC(=O)Nc5cnn(C)c5)cc4)n3)CC2)cc1 [Example 95r, 1-[4-[4-[(3S)-3-methylmorpholin-4-yl]-6-[1-(4-methylphenyl)sulfonylcyclopropyl]pyrimidin-2-yl]phenyl]-3-(1-methylpyrazol-4-yl)urea] gave an IC50 of 6.31 nM.
C[C@H]1COCCN1c1cc(C2(S(=O)(=O)CCCOC(F)F)CC2)nc(-c2ccc(NC(=O)NCCF)cc2)n1 [Example 96a, 1-[4-[4-[1-[3-(difluoromethoxy)propylsulfonyl]cyclopropyl]-6-[(3S)-3-methylmorpholin-4-yl]pyrimidin-2-yl]phenyl]-3-(2-fluoroethyl)urea] showed an IC50 of 17.7 nM.
For C[C@H]1COCCN1c1cc(C2(S(=O)(=O)CCCOC(F)F)CC2)nc(-c2ccc(NC(=O)NCC(F)F)cc2)n1 [Example 96b, 3-(2,2-difluoroethyl)-1-[4-[4-[1-[3-(difluoromethoxy)propylsulfonyl]cycloproyl]-6-[(3S)-3-methylmorpholin-4-yl]pyrimidin-2-yl]phenyl]urea], the IC50 was 26.8 nM.
CCNC(=O)Nc1ccc(-c2nc(N3CCOC[C@@H]3C)cc(C3(S(=O)(=O)CCCOC(F)F)CC3)n2)cc1 [Example 96c, 1-[4-[4-[1-[3-(difluoromethoxy)propylsulfonyl]cyclopropyl]-6-[(3S)-3-methylmorpholin-4-yl]pyrimidin-2-yl]phenyl]-3-ethylurea] gave an IC50 of 27.2 nM.
C[C@H]1COCCN1c1cc(C2(S(=O)(=O)CCCOC(F)F)CC2)nc(-c2ccc(NC(=O)Nc3cnn(C)c3)cc2)n1 [Example 96d, 1-[4-[4-[1-[3-(difluoromethoxy)propylsulfonyl]cyclopropyl]-6-[(3S)-3-methylmorpholin-4-yl]pyrimidin-2-yl]phenyl]-3-(1-methylpyrazol-4-yl)urea] showed an IC50 of 20.9 nM.
Work on C[C@H]1COCCN1c1cc(C2(S(=O)(=O)CCCOC(F)F)CC2)nc(-c2ccc(NC(=O)NC3CC3)cc2)n1 [Example 96e, 3-cyclopropyl-1-[4-[4-[1-[3-(difluoromethoxy)propylsulfonyl]cyclopropyl]-6-[(3S)-3-methylmorpholin-4-yl]pyrimidin-2-yl]phenyl]urea] yielded an IC50 of 8.62 nM.
For CNCCS(=O)(=O)C1(c2cc(N3CCOCC3)nc(-c3ccc(NC(=O)NC)cc3)n2)CC1 [Example 97, 3-Methyl-1-[4-[4-[1-(2-methylaminoethylsulfonyl)cyclopropyl]-6-morpholin-4-ylpyrimidin-2-yl]phenyl]urea], the IC50 was 88.2 nM.
For Cc1csc(S(=O)(=O)C2(c3cc(N4CCOC[C@@H]4C)nc(-c4ccc(NC(=O)NC(C)(C)CO)cc4)n3)CCC2)n1 [Example 98a, 3-(1-hydroxy-2-methylpropan-2-yl)-1-[4-[4-[(3S)-3-methylmorpholin-4-yl]-6-[1-[(4-methyl-1,3-thiazol-2-yl)sulfonyl]cyclobutyl]pyrimidin-2-yl]phenyl]urea], the IC50 was 11 nM.
Cc1csc(S(=O)(=O)C2(c3cc(N4CCOC[C@@H]4C)nc(-c4ccc(NC(=O)N[C@@H](C)CO)cc4)n3)CCC2)n1 [Example 98b, 3-[(2S)-1-hydroxypropan-2-yl]-1-[4-[4-[(3S)-3-methylmorpholin-4-yl]-6-[1-[(4-methyl-1,3-thiazol-2-yl)sulfonyl]cyclobutyl]pyrimidin-2-yl]phenyl]urea] showed an IC50 of 4.13 nM.
Work on Cc1csc(S(=O)(=O)C2(c3cc(N4CCOC[C@@H]4C)nc(-c4ccc(NC(=O)NCc5ncc[nH]5)cc4)n3)CCC2)n1 [Example 98c, 3-(1H-imidazol-2-ylmethyl)-1-[4-[4-[(3S)-3-methylmorpholin-4-yl]-6-[1-[(4-methyl-1,3-thiazol-2-yl)sulfonyl]cyclobutyl]pyrimidin-2-yl]phenyl]urea] yielded an IC50 of 26.7 nM.
Cc1csc(S(=O)(=O)C2(c3cc(N4CCOC[C@@H]4C)nc(-c4ccc(NC(=O)NCCCO)cc4)n3)CCC2)n1 [Example 98d, 3-(3-hydroxypropyl)-1-[4-[4-[(3S)-3-methylmorpholin-4-yl]-6-[1-[(4-methyl-1,3-thiazol-2-yl)sulfonyl]cyclobutyl]pyrimidin-2-yl]phenyl]urea] was tested, and the IC50 was 4.41 nM.
Work on Cc1csc(S(=O)(=O)C2(c3cc(N4CCOC[C@@H]4C)nc(-c4ccc(NC(=O)NCCO)cc4)n3)CCC2)n1 [Example 98e, 3-(2-hydroxyethyl)-1-[4-[4-[(3S)-3-methylmorpholin-4-yl]-6-[1-[(4-methyl-1,3-thiazol-2-yl)sulfonyl]cyclobutyl]pyrimidin-2-yl]phenyl]urea] yielded an IC50 of 3.35 nM.
Work on Cc1csc(S(=O)(=O)C2(c3cc(N4CCOC[C@@H]4C)nc(-c4ccc(NC(=O)N[C@H](C)CO)cc4)n3)CCC2)n1 [Example 98f, 3-[(2R)-1-hydroxypropan-2-yl]-1-[4-[4-[(3S)-3-methylmorpholin-4-yl]-6-[1-[(4-methyl-1,3-thiazol-2-yl)sulfonyl]cyclobutyl]pyrimidin-2-yl]phenyl]urea] yielded an IC50 of 2.29 nM.
Work on C[C@H]1COCCN1c1cc(C2(S(=O)(=O)c3nccs3)CCC2)nc(-c2ccc(NC(=O)NC(C)(C)CO)cc2)n1 [Example 98g, 3-(1-hydroxy-2-methylpropan-2-yl)-1-[4-[4-[(3S)-3-methylmorpholin-4-yl]-6-[1-(1,3-thiazol-2-ylsulfonyl)cyclobutyl]pyrimidin-2-yl]phenyl]urea] yielded an IC50 of 12.7 nM.
C[C@@H](CO)NC(=O)Nc1ccc(-c2nc(N3CCOC[C@@H]3C)cc(C3(S(=O)(=O)c4nccs4)CCC3)n2)cc1 [Example 98h, 3-[(2S)-1-hydroxypropan-2-yl]-1-[4-[4-[(3S)-3-methylmorpholin-4-yl]-6-[1-(1,3-thiazol-2-ylsulfonyl)cyclobutyl]pyrimidin-2-yl]phenyl]urea] showed an IC50 of 3.62 nM.
For C[C@H]1COCCN1c1cc(C2(S(=O)(=O)c3nccs3)CCC2)nc(-c2ccc(NC(=O)NCc3ncc[nH]3)cc2)n1 [Example 98i, 3-(1H-imidazol-2-ylmethyl)-1-[4-[4-[(3S)-3-methylmorpholin-4-yl]-6-[1-(1,3-thiazol-2-ylsulfonyl)cyclobutyl]pyrimidin-2-yl]phenyl]urea], the IC50 was 28.5 nM.
